Source: patent publication US9493448B2, “Cycloalkane derivatives” (Daiichi Sankyo Company, Limited, priority 2012, dated 2016)

Experiments:
[1] = target: hNav 1.7 (Homo sapiens (Human), UniProt Q15858); experiment: Electrophysiological evaluation, automated patch clamp IonWorks Quattro (Population Patch Clamp mode); format: cell-based; details: HEK293A cells stably expressing hNav 1.7/β1/β2; response to second depolarization pulse, pre-pulse potential set to V1/2; read-out: hNav1.7 IC50
[2] = tested on: mice and rats affected by thermal hyperalgesia; experiment: Thermal hyperalgesia assay; format: in vivo; details: oral administration, constant dose, against the vehicle treatment group; latency to escape behaviors after thermal stimulation of hind paw;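 note: measurement times set by the study director and not disclosed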

Chain of hNav 1.7 (Q15858 whole entry): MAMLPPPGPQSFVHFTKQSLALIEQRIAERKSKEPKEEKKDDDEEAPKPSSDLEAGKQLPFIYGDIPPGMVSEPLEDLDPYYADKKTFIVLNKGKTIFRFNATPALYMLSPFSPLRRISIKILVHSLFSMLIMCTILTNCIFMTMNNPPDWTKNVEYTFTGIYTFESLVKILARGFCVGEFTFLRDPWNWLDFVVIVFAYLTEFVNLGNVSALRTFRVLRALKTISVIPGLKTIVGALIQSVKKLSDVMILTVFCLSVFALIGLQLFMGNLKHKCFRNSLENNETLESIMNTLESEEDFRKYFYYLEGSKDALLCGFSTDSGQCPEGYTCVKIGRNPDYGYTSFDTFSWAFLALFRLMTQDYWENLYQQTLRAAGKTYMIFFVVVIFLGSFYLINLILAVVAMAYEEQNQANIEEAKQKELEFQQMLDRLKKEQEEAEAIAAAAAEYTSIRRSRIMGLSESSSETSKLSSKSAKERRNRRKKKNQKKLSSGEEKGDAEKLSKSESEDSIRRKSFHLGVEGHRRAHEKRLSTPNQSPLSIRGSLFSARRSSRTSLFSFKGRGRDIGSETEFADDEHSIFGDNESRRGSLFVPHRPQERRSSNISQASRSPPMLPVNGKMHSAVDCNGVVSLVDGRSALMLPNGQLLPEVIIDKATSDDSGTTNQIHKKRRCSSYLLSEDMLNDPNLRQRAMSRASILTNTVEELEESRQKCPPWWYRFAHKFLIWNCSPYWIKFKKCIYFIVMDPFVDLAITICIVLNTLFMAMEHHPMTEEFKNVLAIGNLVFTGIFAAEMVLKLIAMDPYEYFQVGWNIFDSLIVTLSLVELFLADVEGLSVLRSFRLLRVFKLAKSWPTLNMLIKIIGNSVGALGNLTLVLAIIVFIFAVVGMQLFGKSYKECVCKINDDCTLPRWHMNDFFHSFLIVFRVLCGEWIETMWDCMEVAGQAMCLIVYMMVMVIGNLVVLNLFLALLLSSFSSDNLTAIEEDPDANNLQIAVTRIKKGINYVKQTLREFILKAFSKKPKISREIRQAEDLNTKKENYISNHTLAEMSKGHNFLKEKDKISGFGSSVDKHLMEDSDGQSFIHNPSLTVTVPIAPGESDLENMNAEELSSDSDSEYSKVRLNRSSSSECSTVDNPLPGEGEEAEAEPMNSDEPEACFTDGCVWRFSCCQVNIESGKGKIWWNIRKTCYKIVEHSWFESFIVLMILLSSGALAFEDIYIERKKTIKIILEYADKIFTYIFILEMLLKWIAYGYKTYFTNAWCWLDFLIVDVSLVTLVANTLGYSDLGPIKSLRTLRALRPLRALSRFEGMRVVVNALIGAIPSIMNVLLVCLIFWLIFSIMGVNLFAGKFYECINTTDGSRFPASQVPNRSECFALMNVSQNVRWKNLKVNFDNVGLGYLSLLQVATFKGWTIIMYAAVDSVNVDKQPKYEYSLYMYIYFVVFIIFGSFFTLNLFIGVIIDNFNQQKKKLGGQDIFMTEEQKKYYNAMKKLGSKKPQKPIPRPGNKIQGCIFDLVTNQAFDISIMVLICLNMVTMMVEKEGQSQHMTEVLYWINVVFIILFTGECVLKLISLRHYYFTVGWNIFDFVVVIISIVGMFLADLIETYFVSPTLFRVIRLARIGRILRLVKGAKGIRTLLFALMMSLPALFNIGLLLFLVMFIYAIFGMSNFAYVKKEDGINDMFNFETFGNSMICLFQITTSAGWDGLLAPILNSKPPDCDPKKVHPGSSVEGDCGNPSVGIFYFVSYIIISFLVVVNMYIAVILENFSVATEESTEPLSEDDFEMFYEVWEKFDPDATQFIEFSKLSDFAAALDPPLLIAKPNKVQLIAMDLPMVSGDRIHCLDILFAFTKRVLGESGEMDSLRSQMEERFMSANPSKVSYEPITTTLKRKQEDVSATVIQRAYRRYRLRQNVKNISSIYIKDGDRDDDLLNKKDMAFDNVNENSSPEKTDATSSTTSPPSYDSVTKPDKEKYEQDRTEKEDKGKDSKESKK
Chain of hNav 1.7 (Q07699 19-218 partner): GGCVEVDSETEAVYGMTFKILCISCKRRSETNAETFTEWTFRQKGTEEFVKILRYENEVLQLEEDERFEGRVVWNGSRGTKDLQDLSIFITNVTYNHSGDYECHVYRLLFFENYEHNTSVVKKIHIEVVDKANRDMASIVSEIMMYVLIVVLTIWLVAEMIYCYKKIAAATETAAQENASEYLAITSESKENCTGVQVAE
Chain of hNav 1.7 (O60939 30-215 partner): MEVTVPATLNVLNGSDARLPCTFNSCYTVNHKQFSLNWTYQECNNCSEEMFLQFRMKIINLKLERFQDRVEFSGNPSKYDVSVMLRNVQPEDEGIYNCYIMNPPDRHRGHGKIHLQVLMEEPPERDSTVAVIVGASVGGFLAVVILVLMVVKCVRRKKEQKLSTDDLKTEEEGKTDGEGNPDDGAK

Row | IC50 [1] | Compound | Ratio of improving pain score (%) [2]
1 | 200 nM | Cn1nccc1[C@H]1CC(F)(F)C[C@@H]1Oc1ccc(S(=O)(=O)Nc2ccncn2)c(F)c1F (relative stereo) [Example 132, 4-{[(1S*,2R*)-4,4-Difluoro-2-(1-methyl-1H-pyrazol-5-yl)cyclopentyl]oxy}-2,3-difluoro-N-(pyrimidin-4-yl)benzenesulfonamide] | A (“A” when the rate was 61 to 100%)
2 | 71 nM | O=S(=O)(Nc1ccncn1)c1c(F)cc(O[C@H]2CC(F)(F)CC[C@@H]2c2cn[nH]c2)cc1F (relative stereo) [Example 104, 4-{[(1S*,2R*)-5,5-Difluoro-2-(1H-pyrazol-4-yl)cyclohexyl]oxy}-2,6-difluoro-N-(pyrimidin-4-yl)benzenesulfonamide] | B (“B” when the rate was 31 to 60%)
3 | 36 nM | Cn1nccc1[C@H]1CCC(C)(C)C[C@@H]1Oc1cc(F)c(S(=O)(=O)Nc2ccncn2)cc1F (relative stereo) [Example 72, 4-{[(1S*,2R*)-5,5-Dimethyl-2-(1-methyl-1H-pyrazol-5-yl)cyclohexyl]oxy}-2,5-difluoro-N-(pyrimidin-4-yl)benzenesulfonamide] | C (“C” when the rate was 0 to 30%)
4 | 37 nM | Cn1nccc1[C@H]1CCCCC[C@@H]1Oc1cc(F)c(S(=O)(=O)Nc2ccncn2)cc1Cl (relative stereo) [Example 60, 5-Chloro-2-fluoro-4-{[(1S*,2R*)-2-(1-methyl-1H-pyrazol-5-yl)cycloheptyl]oxy}-N-(pyrimidin-4-yl)benzenesulfonamide] | C (“C” when the rate was 0 to 30%)
5 | 31 nM | CCn1nccc1[C@H]1CCCC[C@@H]1Oc1cc(F)c(S(=O)(=O)Nc2ccncn2)c(F)c1 (relative stereo) [Example 59, 4-{[(1S*,2R*)-2-(1-Ethyl-1H-pyrazol-5-yl)cyclohexyl]oxy}-2,6-difluoro-N-(pyrimidin-4-yl)benzenesulfonamide] | C (“C” when the rate was 0 to 30%)
6 | 330 nM | Cn1nccc1[C@H]1CCCC[C@@H]1Oc1ccc(S(=O)(=O)Nc2ccncn2)c(F)c1F (relative stereo) [Example 40, 2,3-Difluoro-4-{[(1S*,2R*)-2-(1-methyl-1H-pyrazol-5-yl)cyclohexyl]oxy}-N-(pyrimidin-4-yl)benzenesulfonamide] | A (“A” when the rate was 61 to 100%)
7 | 120 nM | O=S(=O)(Nc1ccncn1)c1c(F)cc(O[C@H]2CCCC[C@@H]2c2cn[nH]c2)cc1F (relative stereo) [Example 94, 2,6-Difluoro-4-{[(1S*,2R*)-2-(1H-pyrazol-4-yl)cyclohexyl]oxy}-N-(pyrimidin-4-yl)benzenesulfonamide] | A (“A” when the rate was 61 to 100%)
8 | 580 nM | CCn1nccc1[C@H]1CCC[C@@H]1Oc1ccc(S(=O)(=O)Nc2ccncn2)c(F)c1 (relative stereo) [Example 115, 4-{[(1S*,2R*)-2-(1-Ethyl-1H-pyrazol-5-yl)cyclopentyl]oxy}-2-fluoro-N-(pyrimidin-4-yl)benzenesulfonamide] | A (“A” when the rate was 61 to 100%)
9 | 200 nM | Cc1cc(S(=O)(=O)Nc2nncs2)c(F)cc1O[C@H]1CC(F)(F)CC[C@@H]1c1ccnn1C (relative stereo) [Example 125, 4-{[(1S*,2R*)-5,5-Difluoro-2-(1-methyl-1H-pyrazol-5-yl)cyclohexyl]oxy}-2-fluoro-5-methyl-N-(1,3,4-thiadiazol-2-yl)benzenesulfonamide] | C (“C” when the rate was 0 to 30%)
10 | 150 nM | Cc1cc(S(=O)(=O)Nc2ccncn2)c(F)cc1O[C@H]1CCCC[C@@H]1c1cn[nH]c1 (relative stereo) [Example 81, 2-Fluoro-5-methyl-4-{[(1S*,2R*)-2-(1H-pyrazol-4-yl)cyclohexyl]oxy}-N-(pyrimidin-4-yl)benzenesulfonamide] | C (“C” when the rate was 0 to 30%)
11 | 24 nM | Cn1nccc1[C@H]1CC(F)(F)C[C@@H]1Oc1cc(F)c(S(=O)(=O)Nc2ccncn2)cc1Cl (relative stereo) [Example 146, 5-Chloro-4-{[(1S*,2R*)-4,4-difluoro-2-(1-methyl-1H-pyrazol-5-yl)cyclopentyl]oxy}-2-fluoro-N-(pyrimidin-4-yl)benzenesulfonamide] | C (“C” when the rate was 0 to 30%)
12 | 170 nM | [2H]c1nccc(NS(=O)(=O)c2ccc(O[C@H]3CCC[C@@H]3c3ccnn3CC)c(F)c2F)n1 (relative stereo) [Example 95, 4-{[(1S*,2R*)-2-(1-Ethyl-1H-pyrazol-5-yl)cyclopentyl]oxy}-2,3-difluoro-N-(2-^2H) (pyrimidin-4-yl)benzenesulfonamide] | C (“C” when the rate was 0 to 30%)
13 | 28 nM | O=S(=O)(Nc1ccncn1)c1cc(Cl)c(O[C@H]2CCCC[C@@H]2c2ccn[nH]2)cc1F [Example 158, 5-Chloro-2-fluoro-4-{[(1S,2R)-2-(1H-pyrazol-5-yl)cyclohexyl]oxy}-N-(pyrimidin-4-yl)benzenesulfonamide] | C (“C” when the rate was 0 to 30%)
14 | 39 nM | Cc1cc(S(=O)(=O)Nc2ccncn2)ccc1O[C@H]1CCCC[C@@H]1c1ccnn1C (relative stereo) [Example 54, 3-Methyl-4-{[(1S*,2R*)-2-(1-methyl-1H-pyrazol-5-yl)cyclohexyl]oxy}-N-(pyrimidin-4-yl)benzenesulfonamide] | C (“C” when the rate was 0 to 30%)
15 | 34 nM | Cn1nccc1[C@H]1C[C@@H](OCc2ccccc2)C[C@@H]1Oc1cc(F)c(S(=O)(=O)Nc2ccncn2)cc1F (relative stereo) [Example 97, 4-{[(1S*,2R*,4R*)-4-(Benzyloxy)-2-(1-methyl-1H-pyrazol-5-yl)cyclopentyl]oxy}-2,5-difluoro-N-(pyrimidin-4-yl)benzenesulfonamide] | C (“C” when the rate was 0 to 30%)
16 | 17 nM | O=S(=O)(Nc1ccncn1)c1cc(Cl)c(O[C@H]2CC(F)(F)CC[C@@H]2c2cn[nH]c2)cc1F (relative stereo) [Example 152, 5-Chloro-4-{[(1S*,2R*)-5,5-difluoro-2-(1H-pyrazol-4-yl)cyclohexyl]oxy}-2-fluoro-N-(pyrimidin-4-yl)benzenesulfonamide] | B (“B” when the rate was 31 to 60%)
17 | 100 nM | Cn1nccc1[C@H]1CC(F)(F)CC[C@@H]1Oc1cc(F)c(S(=O)(=O)Nc2ccncn2)c(F)c1 (relative stereo) [Example 129, 4-{[(1S*,2R*)-4,4-Difluoro-2-(1-methyl-1H-pyrazol-5-yl)cyclohexyl]oxy}-2,6-difluoro-N-(pyrimidin-4-yl)benzenesulfonamide] | C (“C” when the rate was 0 to 30%)
18 | 240 nM | CCn1nccc1[C@H]1CCC[C@@H]1Oc1ccc(S(=O)(=O)Nc2ccncn2)c(F)c1F (relative stereo) [Example 38, 4-{[(1S*,2R*)-2-(1-Ethyl-1H-pyrazol-5-yl)cyclopentyl]oxy}-2,3-difluoro-N-(pyrimidin-4-yl)benzenesulfonamide] | A (“A” when the rate was 61 to 100%)
19 | 89 nM | Cc1cc(S(=O)(=O)Nc2ccncn2)c(F)cc1O[C@H]1CC(F)(F)CC[C@@H]1c1ccnn1C (relative stereo) [Example 90, 4-{[(1S*,2R*)-5,5-Difluoro-2-(1-methyl-1H-pyrazol-5-yl)cyclohexyl]oxy}-2-fluoro-5-methyl-N-(pyrimidin-4-yl)benzenesulfonamide] | B (“B” when the rate was 31 to 60%)
20 | 750 nM | Cn1nccc1[C@H]1CCCCC[C@@H]1Oc1ccc(S(=O)(=O)Nc2ccncn2)c(F)c1F (relative stereo) [Example 51, 2,3-Difluoro-4-{[(1S*,2R*)-2-(1-methyl-1H-pyrazol-5-yl)cycloheptyl]oxy}-N-(pyrimidin-4-yl)benzenesulfonamide] | B (“B” when the rate was 31 to 60%)
21 | 120 nM | Cc1cc(S(=O)(=O)Nc2ccncn2)c(F)cc1O[C@H]1CC(F)(F)CC[C@@H]1c1cn[nH]c1 (relative stereo) [Example 127, 4-{[(1S*,2R*)-5,5-Difluoro-2-(1H-pyrazol-4-yl)cyclohexyl]oxy}-2-fluoro-5-methyl-N-(pyrimidin-4-yl)benzenesulfonamide] | A (“A” when the rate was 61 to 100%)
22 | 56 nM | Nc1nnccc1[C@H]1CCCC[C@@H]1Oc1cc(F)c(S(=O)(=O)Nc2ccncn2)cc1F (relative stereo) [Example 82, 4-{[(1S*,2R*)-2-(3-Aminopyridazin-4-yl)cyclohexyl]oxy}-2,5-difluoro-N-(pyrimidin-4-yl)benzenesulfonamide] | B (“B” when the rate was 31 to 60%)
23 | 130 nM | Cc1c(O[C@H]2CCC[C@@H]2c2ccnn2C)ccc(S(=O)(=O)Nc2ccncn2)c1F (relative stereo) [Example 65, 2-Fluoro-3-methyl-4-{[(1S*,2R*)-2-(1-methyl-1H-pyrazol-5-yl)cyclopentyl]oxy}-N-(pyrimidin-4-yl)benzenesulfonamide] | B (“B” when the rate was 31 to 60%)
24 | 46 nM | CCn1nccc1[C@H]1CCCC[C@@H]1Oc1cc(F)c(S(=O)(=O)Nc2ccncn2)cc1F (relative stereo) [Example 28, 4-{[(1S*,2R*)-2-(1-Ethyl-1H-pyrazol-5-yl)cyclohexyl]oxy}-2,5-difluoro-N-(pyrimidin-4-yl)benzenesulfonamide] | C (“C” when the rate was 0 to 30%)
25 | 59 nM | Cn1nccc1[C@H]1CC(F)(F)CC[C@@H]1Oc1cc(F)c(S(=O)(=O)Nc2ccncn2)cc1Cl (relative stereo) [Example 131, 5-Chloro-4-{[(1S*,2R*)-4,4-difluoro-2-(1-methyl-1H-pyrazol-5-yl)cyclohexyl]oxy}-2-fluoro-N-(pyrimidin-4-yl)benzenesulfonamide] | C (“C” when the rate was 0 to 30%)
